The results in this text go back to patent publication US10766865B2, “PKM2 modulators and methods for their use” (TOLERO PHARMACEUTICALS, INC., priority 2012, dated 2020).

Structures are written as SMILES.

The experiment concerns the target PKM2 (Homo sapiens, UniProt P14618). The experiment can be described thus: PKM2 Biochemical Assay. The note with it: for Max. Resp.: % maximum response in a biochemical assay as compared with Fructose 1,6-bisphosphate; for AC50: read-out: PKM2 AC50, 2 nM PKM2, 75 μM ADP, 15 μM PEP, Kinase Glo. (Kinase-Glo measures the ATP left after a reaction by luminescence.)

PKM2, sequence (P14618 whole entry): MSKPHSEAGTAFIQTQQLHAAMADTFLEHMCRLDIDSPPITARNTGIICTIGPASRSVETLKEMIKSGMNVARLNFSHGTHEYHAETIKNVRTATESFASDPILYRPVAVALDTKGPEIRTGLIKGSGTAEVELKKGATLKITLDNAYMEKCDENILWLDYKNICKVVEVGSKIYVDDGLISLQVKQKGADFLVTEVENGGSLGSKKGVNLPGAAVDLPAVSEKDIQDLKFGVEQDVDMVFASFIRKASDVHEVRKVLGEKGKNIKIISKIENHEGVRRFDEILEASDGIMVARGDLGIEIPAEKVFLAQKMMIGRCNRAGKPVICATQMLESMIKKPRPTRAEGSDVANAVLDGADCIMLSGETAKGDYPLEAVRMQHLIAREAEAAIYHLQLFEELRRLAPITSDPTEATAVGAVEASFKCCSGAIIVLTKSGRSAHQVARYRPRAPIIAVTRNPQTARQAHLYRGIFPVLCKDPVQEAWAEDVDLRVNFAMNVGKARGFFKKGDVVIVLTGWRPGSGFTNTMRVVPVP
Method: Full length, human PKM2 enzyme was obtained from Promab (Richmond, Calif.). All reagents, unless otherwise noted, were obtained from Sigma (St. Louis, Mo.).
Compounds were pre-incubated with 2 nM PKM2 in reaction buffer (50 mM Tris-HCl, pH 8.0, 200 mM KCl, 30 mM MgCl2, 2 mM DTT, 5% DMSO) for 30 min at ambient temperature. […] After 30 min, ATP formation was measured by Kinase Glo (Promega, Madison, Wis.), and AC50 values were determined using Prism (GraphPad Software, Inc., La Jolla, Calif.).

Regarding `O=C(c1cc(C(F)(F)F)n[nH]1)N(CCC1CCOC1)Cc1ccccc1Cl` (stereo not shown) [Example 43], the “Max. Resp.” value is reported as 110%.
In the case of `COC1CCN(CCN(Cc2c(N)cccc2Cl)C(=O)c2cc(C(F)(F)F)n[nH]2)C1` (stereo not shown) [Example 235, N-(2-amino-6-chlorobenzyl)-3-(trifluoromethyl)-N-(2-(3-methoxypyrrolidin-1-yl)ethyl)-1H-pyrazole-5-carboxamide], the “Max. Resp.” value turned out to be 100%.
The same measure, in the same setting: the result for `O=C(c1cc(C(F)(F)F)n[nH]1)N(CCc1ccc(O)cc1)Cc1ccccc1Cl` [Example 230, N-(2-chlorobenzyl)-N-(4-hydroxyphenethyl)-3-(trifluoromethyl)-1H-pyrazole-5-carboxamide] reads 100%; that for `O=C(c1cc(C(F)(F)F)n[nH]1)N(CCC(F)(F)F)Cc1ccc(O)cc1F` [Example 130, N-(2-fluoro-4-hydroxybenzyl)-3-(trifluoromethyl)-N-(3,3, trifluoropropyl)-1H-pyrazole-5-carboxamide], 100%; that for `O=C(c1cc(Br)n[nH]1)N(Cc1ccc(O)cc1F)CC1CCC1` [Example 245], 100%.
On the same count and under the same terms, the result for `CCN(CC)CCN(Cc1cc(F)ccc1Cl)C(=O)c1cc(C(F)(F)F)n[nH]1` [Example 171, N-(2-chloro-5-fluorobenzyl)-N-(2-(diethylamino)ethyl)-3-(trifluoromethyl)-1H-pyrazole-5-carboxamide] reads 100%; that for `O=C(c1cc(C(F)(F)F)n[nH]1)N(CCC1CCS(=O)(=O)C1)Cc1c(Cl)cccc1Cl` (stereo not shown) [Example 64], 71%; that for `O=C1CCC(CCN(Cc2ccccc2F)C(=O)c2cc(C(F)(F)F)n[nH]2)CC1` [Example 60, N-(2-fluorobenzyl)-N-(2-(4-oxocyclohexyl)ethyl)-3-(trifluoromethyl)-1H-pyrazole-5-carboxamide], 105%.
For `CC(C)(C)CN(Cc1cccc2[nH]ccc12)C(=O)c1cc(C(F)(F)F)n[nH]1` [Example 13], the “Max. Resp.” value came out at 33%.
Same read-out and setting: the result for `CCN(CC)CCN(Cc1ccccc1F)C(=O)c1cc(C(F)(F)F)n[nH]1` [Example 148, N-(2-fluorobenzyl)-N-(2-(diethylamino)ethyl)-3-(trifluoromethyl)-1H-pyrazole-5-carboxamide] reads 100%; that for `O=C(c1cc(C(F)(F)F)n[nH]1)N(Cc1ccccc1Cl)C1CCOCC1` [Example 35], 59%.
On the same count and under the same terms, as for `O=C(c1cc(C(F)(F)F)n[nH]1)N(CCC1CCS(=O)(=O)C1)Cc1cccc(F)c1` (stereo not shown) [Example 67], the figure is 95%; as for `Nc1cccc(CN(CCN2CCCCCC2)C(=O)c2cc(C(F)(F)F)n[nH]2)c1Cl` [Example 213, N-(3-amino-2-chlorobenzyl)-N-(2-(azepan-1-yl)ethyl)-3-(trifluoromethyl)-1H-pyrazole-5-carboxamide], 100%; as for `O=C(c1cc(C(F)(F)F)n[nH]1)N(CCN1CCCC1)Cc1cccc2[nH]cc(F)c12` [Example 206, N-((3-fluoro-1H-indol-4-yl)methyl)-3-(trifluoromethyl)-N-(2-(pyrrolidin-1-yl)ethyl)-1H-pyrazole-5-carboxamide], 100%.
`O=C(c1cc(C(F)(F)F)n[nH]1)N(Cc1cccc2[nH]ccc12)CC1CCC1` [Example 6, N-((1H-indol-4-yl)methyl)-N-(cyclobutylmethyl)-3-(trifluoromethyl)-1H-pyrazole-5-carboxamide]: the “Max. Resp.” value was found to be 100% and the AC50 (commonly the concentration giving half of the maximal activity seen) amounted to 213 nM.
For `O=C(c1cc(C(F)(F)F)n[nH]1)N(CCC1CCNCC1)Cc1ccccc1F` [Example 98], the “Max. Resp.” value is 56%.
On to `O=C(c1cc(C(F)(F)F)n[nH]1)N(CCN1CCCCCC1)Cc1ccc(O)cc1F` [Example 195, N-(2-fluoro-4-hydroxybenzyl)-N-(2-(azepan-1-yl)ethyl)-3-(trifluoromethyl)-1H-pyrazole-5-carboxamide], for which the “Max. Resp.” value worked out at 100%.
Same read-out and setting: the result for `Nc1ccc(F)c(CN(CCN2CCCCCC2)C(=O)c2cc(C(F)(F)F)n[nH]2)c1` [Example 214, N-(5-amino-2-fluorobenzyl)-N-(2-(azepan-1-yl)ethyl)-3-(trifluoromethyl)-1H-pyrazole-5-carboxamide] reads 100%; that for `O=C(c1cc(C(F)(F)F)n[nH]1)N(CCC1CCS(=O)(=O)C1)Cc1cccnc1` (stereo not shown) [Example 90], 24%.
Still for that read-out and setting: as for `O=C(c1cc(Cl)n[nH]1)N(CCC1CCS(=O)(=O)CC1)Cc1ccccc1F` [Example 81], the figure is 72%.
As to `Nc1cccc(CN(CCN2CCCCCC2)C(=O)c2cc(C(F)(F)F)n[nH]2)c1F` [Example 216, N-(3-amino-2-fluorobenzyl)-N-(2-(azepan-1-yl)ethyl)-3-(trifluoromethyl)-1H-pyrazole-5-carboxamide], the “Max. Resp.” value is 100%.
Turning to `O=C(c1cc(C(F)(F)F)n[nH]1)N(CCN1CCS(=O)(=O)CC1)Cc1ccccc1Cl` [Example 107], the “Max. Resp.” value came out at 85%.
Same read-out and setting: as for `CC1CCCN(CCN(Cc2ccccc2Cl)C(=O)c2cc(C(F)(F)F)n[nH]2)C1` (stereo not shown) [Example 191, N-(2-chlorobenzyl)-3-(trifluoromethyl)-N-(2-(3-methylpiperidin-1-yl)ethyl)-1H-pyrazole-5-carboxamide], the figure is 100%; as for `O=C(c1cc(C(F)(F)F)n[nH]1)N(CCOC1CCCC1)Cc1ccccc1F` [Example 39], 30%; as for `O=C(c1cc(C(F)(F)F)n[nH]1)N(CCC1CCS(=O)(=O)CC1)Cc1ccc(O)cc1F` [Example 87], 100%.
Still for that read-out and setting: as for `CCN(CCN(Cc1ccccc1Cl)C(=O)c1cc(C(F)(F)F)n[nH]1)C(C)C` [Example 204, N-(2-chlorobenzyl)-N-(2-(ethyl-isopropylamino)ethyl)-3-(trifluoromethyl)-1H-pyrazole-5-carboxamide], the figure is 53%; as for `O=C(c1cc(C(F)(F)F)n[nH]1)N(CCC1CCCO1)Cc1ccccc1F` (stereo not shown) [Example 46], 70%; as for `O=C(c1cc(C(F)(F)F)n[nH]1)N(CCC1CC1)Cc1ccc(O)cc1F` [Example 140, N-(2-fluoro-4-hydroxybenzyl)-N-(2-cyclopropylethyl)-3-(trifluoromethyl)-1H-pyrazole-5-carboxamide], 100%.
The same measure, in the same setting: the result for `O=C(c1cc(C(F)(F)F)n[nH]1)N(Cc1ccc(O)cc1F)C1CCCCC1` [Example 139, N-(2-fluoro-4-hydroxybenzyl)-N-cyclohexyl-3-(trifluoromethyl)-1H-pyrazole-5-carboxamide] reads 100%; that for `COCCCN(Cc1ccccc1Cl)C(=O)c1cc(C(F)(F)F)n[nH]1` [Example 31], 82%.
As to `O=C(c1cc(C2CC2)n[nH]1)N(Cc1ccc(O)cc1F)CC1CCC1` [Example 246], the “Max. Resp.” value was determined as 85% and the half-maximal activity concentration (AC50) is 92 nM.
With `CCCN(CC)CCN(Cc1c(N)cccc1F)C(=O)c1cc(C(F)(F)F)n[nH]1` [Example 240, N-(2-fluoro-6-aminobenzyl)-N-(2-(ethyl-propylamino)ethyl)-3-(trifluoromethyl)-1H-pyrazole-5-carboxamide], the “Max. Resp.” value was 100%.
Still for that read-out and setting: as for `Nc1ccccc1CN(CCC1CCS(=O)(=O)C1)C(=O)c1cc(C(F)(F)F)n[nH]1` (stereo not shown) [Example 77], the figure is 43%; as for `O=C(c1cc(C(F)(F)F)n[nH]1)N(CCN1CCCC1)Cc1cccc2nc[nH]c12` [Example 163, N-((1H-benzo[d]imidazol-7-yl)methyl)-3-(trifluoromethyl)-N-(2-(pyrrolidin-1-yl)ethyl)-1H-pyrazole-5-carboxamide], 100%; as for `CC1CCCC(C)N1CCN(Cc1ccccc1Cl)C(=O)c1cc(C(F)(F)F)n[nH]1` (stereo not shown) [Example 212, N-(2-chlorobenzyl)-3-(trifluoromethyl)-N-(2-(2,6-dimethylpiperidin-1-yl)ethyl)-1H-pyrazole-5-carboxamide], 53%.
Same read-out and setting: the result for `CCCCCN(Cc1ccccc1)C(=O)c1cc(C(F)(F)F)n[nH]1` [Example 19] reads 76%.
As to `O=C(c1cc(C(F)(F)F)n[nH]1)N(CCC1CCSCC1)Cc1c(F)cccc1F` [Example 84], the “Max. Resp.” value turned out to be 73%.
In the case of `O=C(c1cc(C(F)(F)F)n[nH]1)N(Cc1cccc2[nH]ccc12)CC1COC1` [Example 12], the “Max. Resp.” value stood at 101%.
Still for that read-out and setting: as for `O=C(c1cc(C(F)(F)F)n[nH]1)N(CCN1CCS(=O)(=O)CC1)Cc1ccccc1F` [Example 108], the figure is 92%; as for `Nc1cccc(Cl)c1CN(CCN1CCCCCC1)C(=O)c1cc(C(F)(F)F)n[nH]1` [Example 218, N-(2-amino-6-chlorobenzyl)-N-(2-(azepan-1-yl)ethyl)-3-(trifluoromethyl)-1H-pyrazole-5-carboxamide], 100%.
As to `O=C(c1cc(C(F)(F)F)n[nH]1)N(Cc1ccncc1Cl)CC1CCC1` [Example 128, N-((3-chloropyridin-4-yl)methyl)-N-(cyclobutylmethyl)-3-(trifluoromethyl)-1H-pyrazole-5-carboxamide], the “Max. Resp.” value is 75%.
Still for that read-out and setting: as for `CN1CCN(CCN(Cc2ccccc2Cl)C(=O)c2cc(C(F)(F)F)n[nH]2)CC1` [Example 104], the figure is 63%; as for `O=C(c1cc(C(F)(F)F)n[nH]1)N(CCC1CCOCC1)Cc1ccccc1F` [Example 41], 118%; as for `Nc1ccc(CN(CC2CCC2)C(=O)c2cc(C(F)(F)F)n[nH]2)c(Cl)c1` [Example 134, N-(4-amino-2-chlorobenzyl)-N-(cyclobutylmethyl)-3-(trifluoromethyl)-1H-pyrazole-5-carboxamide], 100%.
On to `O=C(c1cc(C(F)(F)F)n[nH]1)N(CCC1CCS(=O)(=O)C1)Cc1cccc(F)c1F` (stereo not shown) [Example 68], for which the “Max. Resp.” value worked out at 103%.
On the same count and under the same terms, as for `Nc1ccc(Cl)c(CN(CCN2CCCCCC2)C(=O)c2cc(C(F)(F)F)n[nH]2)c1` [Example 196, N-(5-amino-2-chlorobenzyl)-N-(2-(azepan-1-yl)ethyl)-3-(trifluoromethyl)-1H-pyrazole-5-carboxamide], the figure is 100%.
On the same count and under the same terms, as for `CO[C@H]1CC[C@H](N(Cc2cc(F)cc(F)c2)C(=O)c2cc(C(F)(F)F)n[nH]2)CC1` [Example 51], the figure is 31%.
